“And” between values parts separate entries of the source, which are not always exact repeats. Equal values may be shown once. Read-outs that look alike come from different tables or passages of the source.
Key:
Assay type in all cases: cell-based, human
KCC3 pThr991 = assay: Immunoblot of KCC site 1 phosphorylation (KCC3 Thr991) in HEK-293 cells transfected with FLAG-KCC3; conditions: for IC50: read-out: KCC3 pThr991 (μM), 50% inhibition, HEK-293, n = 3
NKCC1 pThr203/207/212 [1] = assay: Immunoblot of NKCC1 p-Thr203/Thr207/Thr212 in HEK-293 cells; conditions: read-out: NKCC1 pThr203 (μM), 50% inhibition, HEK-293, n = 3
KCC3 pThr1048 [2] = assay: Immunoblot of KCC site 2 phosphorylation (KCC3 Thr1048) in HEK-293 cells transfected with FLAG-KCC3; conditions: read-out: KCC3 pThr1048 (μM), 50% inhibition, HEK-293, n = 3
SPAK pSer373 [3] = assay: Immunoblot of SPAK/OSR1 p-Ser373/Ser325 in HEK-293 cells; conditions: read-out: SPAK pSer373 (μM), 50% inhibition, HEK-293, n = 3
SPAK pSer373 [4] = assay: as above
Method: (§1) Band intensities were quantitated with ImageJ software. ***p < 0.001; **p < 0.01; *p < 0.05; ns, nonsignificant [by one-way ANOVA with post hoc testing (n = 6, error bars represent the mean ± SEM)].
(§2) Thirty-six hours post transfection, cells were stimulated with either control isotonic or hypotonic medium for a period of 30 min. […] Protein concentrations were determined using the Bradford method. Cells were treated with the indicated concentrations of the SPAK/OSR1 inhibitors.

KCC3 pThr1048 [5] = assay: Immunoblot of KCC site 2 phosphorylation (KCC3 Thr1048) in HEK-293 cells transfected with FLAG-KCC3
NKCC1 pThr203/207/212 [6] = assay: Immunoblot of NKCC1 p-Thr203/Thr207/Thr212 in HEK-293 cells
Method: as §1, §2

[7] = Hypotonic low Cl, compound concentration 1 (unit not given)
[8] = Hypotonic low Cl, compound concentration 3 (unit not given)
[9] = Hypotonic low Cl, compound concentration 10 (unit not given)
[10] = Isotonic control, compound concentration 1 (unit not given)
[11] = Isotonic control, compound concentration 3 (unit not given)
[12] = Isotonic control, compound concentration 10 (unit not given)

SMILES | pSer373 / SPAK (SPAK pSer373 [4]; [7]) | pSer373 / SPAK (SPAK pSer373 [4]; [8]) | pSer373 / SPAK (SPAK pSer373 [4]; [9]) | pSer373 / SPAK (SPAK pSer373 [4]; [10]) | pSer373 / SPAK (SPAK pSer373 [4]; [12]) | Site-1 phospho / KCC (KCC3 pThr991; [7]) | Site-1 phospho / KCC (KCC3 pThr991; [8]) | Site-1 phospho / KCC (KCC3 pThr991; [9]) | Site-1 phospho / KCC (KCC3 pThr991; [10]) | Site-1 phospho / KCC (KCC3 pThr991; [11]) | Site-1 phospho / KCC (KCC3 pThr991; [12]) | Site-2 phospho / KCC (KCC3 pThr1048 [5]; [7]) | Site-2 phospho / KCC (KCC3 pThr1048 [5]; [8]) | Site-2 phospho / KCC (KCC3 pThr1048 [5]; [9]) | Site-2 phospho / KCC (KCC3 pThr1048 [5]; [10]) | Site-2 phospho / KCC (KCC3 pThr1048 [5]; [11]) | Site-2 phospho / KCC (KCC3 pThr1048 [5]; [12]) | pThrNKCC1 / NKCC1 (NKCC1 pThr203/207/212 [6]; [7]) | pThrNKCC1 / NKCC1 (NKCC1 pThr203/207/212 [6]; [8]) | pThrNKCC1 / NKCC1 (NKCC1 pThr203/207/212 [6]; [10]) | other results
Cc1cc(C(C#N)c2ccc(Cl)cc2)c(Cl)cc1NC(=O)c1ccccc1[N+](=O)[O-] (stereo not drawn) [Compound 1e] |  |  |  |  |  |  |  |  |  |  |  |  |  |  |  |  |  |  |  |  | IC50 (KCC3 pThr991; Iso (isotonic)): > 10 µM; IC50 (KCC3 pThr991; hypo (hypotonic)): > 10 µM; IC50 (NKCC1 pThr203/207/212 [1]; Iso (isotonic)): > 10 µM; IC50 (NKCC1 pThr203/207/212 [1]; hypo (hypotonic)): > 10 µM; IC50 (KCC3 pThr1048 [2]; Iso (isotonic)): > 10 µM; IC50 (KCC3 pThr1048 [2]; hypo (hypotonic)): > 10 µM; IC50 (SPAK pSer373 [3]; Iso (isotonic)): > 10 µM; IC50 (SPAK pSer373 [3]; hypo (hypotonic)): > 10 µM
Cc1cc(C(C#N)c2ccc(Cl)cc2)c(Cl)cc1NC(=O)c1cccc(O)c1O (stereo not drawn) [Compound 1i] |  |  |  |  |  |  |  |  |  |  |  |  |  |  |  |  |  |  |  |  | IC50 (KCC3 pThr991; Iso (isotonic)): > 10 µM; IC50 (KCC3 pThr991; hypo (hypotonic)): > 10 µM; IC50 (NKCC1 pThr203/207/212 [1]; Iso (isotonic)): > 10 µM; IC50 (NKCC1 pThr203/207/212 [1]; hypo (hypotonic)): > 10 µM; IC50 (KCC3 pThr1048 [2]; Iso (isotonic)): > 10 µM; IC50 (KCC3 pThr1048 [2]; hypo (hypotonic)): > 10 µM; IC50 (SPAK pSer373 [3]; Iso (isotonic)): > 10 µM; IC50 (SPAK pSer373 [3]; hypo (hypotonic)): > 10 µM
COc1ccc(Cl)cc1C(=O)Nc1cc(Cl)c(C(C#N)c2ccc(Cl)cc2)cc1C (stereo not drawn) [Compound 1j] |  |  |  |  |  |  |  |  |  |  |  |  |  |  |  |  |  |  |  |  | IC50 (KCC3 pThr991; Iso (isotonic)): > 10 µM; IC50 (KCC3 pThr991; hypo (hypotonic)): > 10 µM; IC50 (NKCC1 pThr203/207/212 [1]; Iso (isotonic)): > 10 µM; IC50 (NKCC1 pThr203/207/212 [1]; hypo (hypotonic)): > 10 µM; IC50 (KCC3 pThr1048 [2]; Iso (isotonic)): > 10 µM; IC50 (KCC3 pThr1048 [2]; hypo (hypotonic)): > 10 µM; IC50 (SPAK pSer373 [3]; Iso (isotonic)): > 10 µM; IC50 (SPAK pSer373 [3]; hypo (hypotonic)): > 10 µM
Cc1cc(C(C#N)c2ccc(Cl)cc2)c(Cl)cc1NC(=O)c1ccccc1N (stereo not drawn) [ZT-1d] | 0.19 and 0.21 and 0.18 and 0.207 | 0.131 and 0.12 and 0.103 and 0.116 | 0.04 and 0.025 and 0.035 and 0.031 | 0.11 and 0.119 and 0.109 and 0.101 | 0.022 and 0.031 and 0.038 and 0.028 | 0.516 and 0.487 and 0.55 and 0.508 | 0.509 and 0.49 and 0.511 and 0.521 | 0.276 and 0.218 and 0.234 and 0.258 | 0.49 and 0.471 and 0.48 and 0.466 | 0.355 and 0.36 and 0.38 and 0.371 | 0.218 and 0.232 and 0.255 and 0.241 | 0.37 and 0.41 and 0.35 and 0.482 | 0.29 and 0.25 and 0.23 and 0.287 | 0.105 and 0.124 and 0.08 and 0.117 | 0.412 and 0.477 and 0.43 and 0.521 | 0.209 and 0.165 and 0.191 and 0.177 | 0.108 and 0.08 and 0.114 and 0.094 | 0.46 and 0.429 and 0.413 and 0.49 | 0.27 and 0.21 and 0.203 and 0.251 | 0.313 and 0.307 and 0.286 and 0.297 | pSer373 / SPAK (SPAK pSer373 [4]; [11]): 0.072 and 0.065 and 0.051 and 0.063; pThrNKCC1 / NKCC1 (NKCC1 pThr203/207/212 [6]; [9]): 0.11 and 0.077 and 0.102 and 0.085; pThrNKCC1 / NKCC1 (NKCC1 pThr203/207/212 [6]; [11]): 0.143 and 0.119 and 0.09 and 0.126; pThrNKCC1 / NKCC1 (NKCC1 pThr203/207/212 [6]; [12]): 0.055 and 0.031 and 0.042 and 0.047
Cc1cc(C(C#N)c2ccc(Cl)cc2)c(Cl)cc1NC(=O)c1cc(Cl)cc(Cl)c1O (stereo not drawn) [ZT-1f] | 0.49 and 0.51 and 0.58 and 0.552 | 0.255 and 0.215 and 0.1963 and 0.207 | 0.059 and 0.041 and 0.05 and 0.046 | 0.221 and 0.274 and 0.241 and 0.291 | 0.031 and 0.026 and 0.028 | 0.591 and 0.61 and 0.578 and 0.662 | 0.501 and 0.522 and 0.538 and 0.551 | 0.304 and 0.287 and 0.249 and 0.4315 | 0.52 and 0.572 and 0.465 and 0.481 | 0.476 and 0.441 and 0.483 and 0.501 | 0.412 and 0.386 and 0.366 and 0.392 | 0.535 and 0.483 and 0.512 and 0.467 | 0.341 and 0.264 and 0.311 and 0.293 | 0.109 and 0.131 and 0.09 and 0.115 | 0.486 and 0.369 and 0.411 and 0.451 | 0.191 and 0.175 and 0.185 and 0.163 | 0.073 and 0.097 and 0.081 and 0.092 | 0.511 and 0.43 and 0.48 and 0.55 | 0.144 and 0.139 and 0.1273 and 0.131 | 0.187 and 0.123 and 0.15 and 0.173 | pSer373 / SPAK (SPAK pSer373 [4]; [11]): 0.101 and 0.09 and 0.083 and 0.121; pThrNKCC1 / NKCC1 (NKCC1 pThr203/207/212 [6]; [9]): 0.029 and 0.031 and 0.039 and 0.026; pThrNKCC1 / NKCC1 (NKCC1 pThr203/207/212 [6]; [12]): 0.009 and 0.011 and 0.016 and 0.012
Cc1cc(C(C#N)c2ccc(Cl)cc2)c(Cl)cc1NC(=O)c1cc(F)ccc1O (stereo not drawn) [ZT-1g] | 0.101 and 0.097 and 0.112 and 0.0903 | 0.058 and 0.071 and 0.066 and 0.078 | 0.044 and 0.027 and 0.035 and 0.041 | 0.034 and 0.041 and 0.029 and 0.046 | 0.017 and 0.015 and 0.013 and 0.016 | 1.44 and 1.512 and 1.37 and 1.612 | 1.67 and 1.55 and 1.71 and 1.58 | 1.28 and 1.109 and 1.16 and 1.25 | 1.31 and 1.461 and 1.597 and 1.37 | 1.16 and 1.27 and 1.05 and 1.23 | 0.79 and 0.93 and 0.85 and 0.712 | 0.321 and 0.39 and 0.36 and 0.315 | 0.263 and 0.275 and 0.22 and 0.253 | 0.1 and 0.116 and 0.092 and 0.107 | 0.389 and 0.326 and 0.357 and 0.301 | 0.233 and 0.197 and 0.175 and 0.227 | 0.104 and 0.076 and 0.11 and 0.095 | 0.41 and 0.38 and 0.36 and 0.43 | 0.21 and 0.19 and 0.176 and 0.196 | 0.306 and 0.28 and 0.251 and 0.293 | pThrNKCC1 / NKCC1 (NKCC1 pThr203/207/212 [6]; [9]): 0.1 and 0.064 and 0.089 and 0.097; pThrNKCC1 / NKCC1 (NKCC1 pThr203/207/212 [6]; [11]): 0.167 and 0.134 and 0.121 and 0.172; pThrNKCC1 / NKCC1 (NKCC1 pThr203/207/212 [6]; [12]): 0.035 and 0.039 and 0.045 and 0.032
Cc1cc(C(C#N)c2ccc(Cl)cc2)c(Cl)cc1NC(=O)c1cccc(F)c1O (stereo not drawn) [ZT-1h] | 0.297 and 0.248 and 0.275 and 0.253 | 0.179 and 0.135 and 0.168 and 0.158 | 0.066 and 0.034 and 0.051 and 0.049 | 0.112 and 0.124 and 0.132 and 0.106 | 0.034 and 0.025 and 0.043 and 0.026 | 0.488 and 0.427 and 0.359 and 0.502 | 0.412 and 0.376 and 0.392 and 0.431 | 0.165 and 0.187 and 0.122 and 0.203 | 0.455 and 0.431 and 0.5108 and 0.482 | 0.419 and 0.386 and 0.354 and 0.437 | 0.215 and 0.201 and 0.251 and 0.276 | 0.281 and 0.258 and 0.279 and 0.266 | 0.143 and 0.176 and 0.159 and 0.132 | 0.021 and 0.042 and 0.035 and 0.025 | 0.271 and 0.243 and 0.219 and 0.263 | 0.186 and 0.176 and 0.131 and 0.159 | 0.052 and 0.041 and 0.03 and 0.048 | 0.317 and 0.294 and 0.283 and 0.306 | 0.131 and 0.156 and 0.1342 and 0.125 | 0.112 and 0.132 and 0.122 and 0.109 | pSer373 / SPAK (SPAK pSer373 [4]; [11]): 0.08 and 0.07 and 0.064 and 0.084; pThrNKCC1 / NKCC1 (NKCC1 pThr203/207/212 [6]; [11]): 0.022 and 0.043 and 0.035 and 0.028; pThrNKCC1 / NKCC1 (NKCC1 pThr203/207/212 [6]; [12]): 0.008 and 0.006 and 0.004 and 0.005

Reference: article PMC6946680, “Modulation of brain cation-Cl^− cotransport via the SPAK kinase inhibitor ZT-1a” (Nature Communications, 2020)
